Reference: paper PMC7490411 (Signal Transduction and Targeted Therapy, 2020)

Tests used:
[1] = tested on: Mino cells; experiment: NK-cell-mediated ADCC, LDH release cytotoxicity assay, Rituximab; type: cell-based, human
Method: (§1) The cytotoxicity of NK cells was measured using the CyQUANT™ LDH Cytotoxicity Assay Kit (Invitrogen™, #C20300) according to the manufacturer’s instructions. Briefly, enriched NK cells (6 × 10^5 /ml) were cultured with the same volume of Mino cell and SK-OV-3 cell (1-2 × 10^4 /ml) in a 96-well plate for 4 h with Rituximab and Herceptin (10 μg/mL) and CHMFL-BTK-85 or PCI32765 at 37°C in a humidified CO2 incubator prior to removal of the supernatant for lactate dehydrogenase (LDH) release measurements. Calculate % Cytotoxicity by using the following formula: %Cytotoxicity = (Compound-treated LDH activity-Spontaneous LDH activity)/(Maximum LDH activity-Spontaneous LDH activity)*100.

[2] = tested on: SK-OV-3 cells; experiment: NK-cell-mediated ADCC, LDH release cytotoxicity assay, Herceptin; type: cell-based, human
Method: as §1

[3] = tested on: DOHH2; experiment: anti-proliferative CellTiter-Glo assay; type: cell-based; conditions: Homo sapiens, DOHH-2; DOHH2, 72 h
Method: (§2) Cell viability was measured using the CellTiter–Glo assay (Promega, USA) according to the manufacturer’s instructions, and […] was measured in a Bio-red Microplate reader (Bio-Red, USA).

[4] = tested on: JEKO-1; experiment: anti-proliferative CellTiter-Glo assay; type: cell-based; conditions: Homo sapiens, JeKo-1, 72 h
Method: as §2

[5] = tested on: Pfeiffer; experiment: anti-proliferative CellTiter-Glo assay; type: cell-based; conditions: Homo sapiens, 72 h
Method: as §2

[6] = tested on: REC-1; experiment: anti-proliferative CellTiter-Glo assay; type: cell-based; conditions: Homo sapiens, Rec1; REC-1, 72 h
Method: as §2

[7] = tested on: Raji; experiment: anti-proliferative CellTiter-Glo assay; type: cell-based; conditions: Homo sapiens, 72 h
Method: as §2

[8] = tested on: Ramos; experiment: anti-proliferative CellTiter-Glo assay; type: cell-based; conditions: Homo sapiens, 72 h
Method: as §2

[9] = tested on: SU-DHL-2; experiment: anti-proliferative CellTiter-Glo assay; type: cell-based; conditions: Homo sapiens, SU-DHL-2, 72 h
Method: as §2

[10] = tested on: SU-DHL-6; experiment: anti-proliferative CellTiter-Glo assay; type: cell-based; conditions: Homo sapiens, SU-DHL-6, 72 h
Method: as §2

[11] = tested on: TMD8; experiment: anti-proliferative CellTiter-Glo assay; type: cell-based; conditions: Homo sapiens, TMD8, 72 h
Method: as §2

[12] = tested on: U2932; experiment: anti-proliferative CellTiter-Glo assay; type: cell-based; conditions: Homo sapiens, U2932, 72 h
Method: as §2

[13] = tested on: WSU-DLCL2; experiment: anti-proliferative CellTiter-Glo assay; type: cell-based; conditions: Homo sapiens, WSUDLCL2; WSU-DLCL2, 72 h
Method: as §2

[14] = tested on: TMD8 cell (DLBCL)-inoculated xenograft; experiment: TMD8 cell subcutaneous xenograft tumor model; type: in vivo; conditions: TMD8 xenograft, 100 mg/kg/day, 28 days
[15] = tested on: REC-1 cell (MCL)-inoculated xenograft; experiment: REC-1 cell subcutaneous xenograft tumor model; type: in vivo; conditions: REC-1 xenograft, 100 mg/kg/day, 14 days
[16] = drug enrichment in the tumor; type: in vivo, mouse; conditions: 100 mg/kg
[17] = tested on: REC-1 cells bone marrow engraftment; experiment: REC-1 cells bone marrow engrafted mouse model; type: in vivo; conditions: REC-1 bone marrow engraftment, 100 mg/kg/day p.o.
Method: Five-week old female NOD-SCID mice were purchased from the Beijing Vital River Laboratory Animal Technology Co., Ltd (Beijing, China). All animals were housed in a specific pathogen free facility and used according to the animal care regulations of Hefei Institutes of Physical Science, Chinese Academy of Sciences. NOD-SCID mice were induced by intraperitoneal injection of cyclophosphamide (CTX) 50 mg/kg daily for two days. 8 million REC-1 cells in 0.3 mL RPMI1640 medium were injected by intravenous after 24 h. […] Mice were monitored daily and were euthanized when moribund or at early signs of hind limb paralysis.

SMILES | effect on antibody-dependent NK-cell-mediated cytotoxicity (ADCC) [1] | effect on antibody-dependent NK-cell-mediated cytotoxicity (ADCC) [2] | GI50 [3] [nM] | GI50 [4] [nM] | GI50 [5] [nM] | GI50 [6] [nM] | GI50 [7] [nM] | GI50 [8] [nM] | GI50 [9] [nM] | GI50 [10] [nM] | GI50 [11] [nM] | GI50 [12] [nM] | GI50 [13] [nM] | TGI [14] [%] | TGI [15] [%] | concentration in the tumor [16] [nM] | median survival time [17] [days]
C=CC(=O)N1CCC[C@@H](n2nc(-c3ccc(Oc4ccccc4)cc3)c3c(N)ncnc32)C1 [Ibrutinib, reference compound] | significantly impaired | significantly impaired | 260 ± 180 | 2000 ± 150 | 1200 ± 120 | 30 ± 21 | 6100 ± 1800 | 3800 ± 660 | 4900 ± 200 | 370 ± 55 | 1 ± 0.1 | 1400 ± 1200 | 180 ± 100 | 90 | 59 | 1230 | 39
CC#CC(=O)N1CCC[C@H]1c1nc(-c2ccc(C(=O)Nc3ccccn3)cc2)c2c(N)nccn12 [Acalabrutinib] | – | – | – | – | – | 30 ± 2 | – | – | – | – | 20 ± 3 | – | – | – | 58 | 1300 | –
